The source of these data is PubChem BioAssay (NCI).

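Cultured in 96-well plates, cells were exposed to test compound for 48 hours across five concentrations. The concentration for full growth arrest is given as TGI.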 Where only a bound is given, the exact number is not on record here.

The test system of one assay is HL-60(TB) leukemia. The assay is described as follows: inhibition of tumour cell growth, NCI panel, 48 h.
For `COC(=O)[C@@H]1[C@H](OC(C)=O)CCC2[C@@]3(C[C@@H](c4ccoc4)O[C@@H]3OC)[C@H](C)CC[C@]21C(=O)OC` (stereo partly specified), the TGI is more than 25 µM.
Same read-out and setting: then `CN1c2ccccc2C(=O)NC12CCN(CCCC(=O)c1ccc(F)cc1)CC2`, with more than 100 µM; and `NC(N)=NCC[C@H](NC(=O)OCCCCCn1ccc(=O)[nH]c1=O)C(=O)O`, with more than 100 µM; and `O=C(c1ccccc1)c1ccc2nc(-c3c(Cl)c(Cl)c(Cl)c(Cl)c3C(=O)N/N=C/c3ccc(Cl)cc3)[nH]c2c1`, with 21.1 µM.
Same read-out and setting: for `CCc1nn(CN2CCOCC2)c(=S)n1/N=C/c1ccc(-c2ccc(Cl)cc2)o1` the value was more than 100 µM; for `COc1cc(C2SCC(=O)N2c2cccc(Cl)c2)cc(OC)c1OC` (stereo unspecified), more than 100 µM.
On the same count and under the same terms, for `CCOC(=O)c1c(C)nc2c1c(CN(C)C)c(O)c1[nH]c(C)c(C)nc12` the value was 25.2 µM.
Consider `CC(=O)C1C(=O)C(=O)N(c2cccc([N+](=O)[O-])c2)C1=O` (stereo unspecified), for which the TGI was more than 100 µM.
The same measure, in the same setting: then `CCN(CC)CC1CCCCN1CC(=O)N1c2ccccc2C(=O)Nc2cccnc21` (stereo unspecified), with 35 µM.
On the same count and under the same terms, for `C=CC[C@@H](N)C(=O)N(C)[C@@H](C)[C@@H](O)c1ccccc1` the value was more than 100 µM.
Consider `N#Cc1sc2c(c1OC(=O)c1ccccc1)c(=O)n(-c1ccccc1)c(=S)n2-c1ccccc1`, for which the TGI came to 61.4 µM.
The same measure, in the same setting: for `O=C(NC1=C(Cl)C(=O)c2ccccc2C1=O)c1ccc(F)cc1` the value was more than 100 µM.

The next assay has as its system A498 renal. Nature of the assay: inhibition of tumour cell growth, NCI panel, 48 h.
`COC(=O)[C@@H]1[C@H](OC(C)=O)CCC2[C@@]3(C[C@@H](c4ccoc4)O[C@@H]3OC)[C@H](C)CC[C@]21C(=O)OC` (stereo partly specified) gave a TGI of more than 25 µM.
Molecule `Cc1n[nH]c(=O)n1N1C(=O)CCCC1=O` returned a TGI of more than 100 µM.
On the same count and under the same terms, then `CCc1nn(CN2CCOCC2)c(=S)n1/N=C/c1ccc(-c2ccc(Cl)cc2)o1`, with more than 100 µM; and `COc1cc(C2SCC(=O)N2c2cccc(Cl)c2)cc(OC)c1OC` (stereo unspecified), with more than 100 µM; and `CCOC(=O)c1c(C)nc2c1c(CN(C)C)c(O)c1[nH]c(C)c(C)nc12`, with 40 µM.
In the case of `CCN(CC)CC1CCCCN1CC(=O)N1c2ccccc2C(=O)Nc2cccnc21` (stereo unspecified), the TGI is more than 100 µM.
For the molecule `C=CC[C@@H](N)C(=O)N(C)[C@@H](C)[C@@H](O)c1ccccc1`, the TGI was more than 100 µM.

The subject of the next assay is ACHN renal. Nature of the assay: inhibition of tumour cell growth, NCI panel, 48 h.
Consider `COC(=O)[C@@H]1[C@H](OC(C)=O)CCC2[C@@]3(C[C@@H](c4ccoc4)O[C@@H]3OC)[C@H](C)CC[C@]21C(=O)OC` (stereo partly specified), for which the TGI is more than 25 µM.
`CC(C)(C)OC(=O)NC(Cc1ccccc1)OCc1ccccc1` (stereo unspecified) had a TGI of 35 µM.
Consider `CN1c2ccccc2C(=O)NC12CCN(CCCC(=O)c1ccc(F)cc1)CC2`, for which the TGI was more than 100 µM.
Still for that read-out and setting: for `NC(N)=NCC[C@H](NC(=O)OCCCCCn1ccc(=O)[nH]c1=O)C(=O)O` the value was more than 100 µM; for `O=C(c1ccccc1)c1ccc2nc(-c3c(Cl)c(Cl)c(Cl)c(Cl)c3C(=O)N/N=C/c3ccc(Cl)cc3)[nH]c2c1`, 65.7 µM; for `CCc1nn(CN2CCOCC2)c(=S)n1/N=C/c1ccc(-c2ccc(Cl)cc2)o1`, more than 100 µM.
On the same count and under the same terms, for `COc1cc(C2SCC(=O)N2c2cccc(Cl)c2)cc(OC)c1OC` (stereo unspecified) the value was more than 100 µM; for `CCOC(=O)c1c(C)nc2c1c(CN(C)C)c(O)c1[nH]c(C)c(C)nc12`, 69.9 µM; for `CC(=O)C1C(=O)C(=O)N(c2cccc([N+](=O)[O-])c2)C1=O` (stereo unspecified), more than 100 µM.
On the same count and under the same terms, then `CCN(CC)CC1CCCCN1CC(=O)N1c2ccccc2C(=O)Nc2cccnc21` (stereo unspecified), with more than 100 µM; and `C=CC[C@@H](N)C(=O)N(C)[C@@H](C)[C@@H](O)c1ccccc1`, with more than 100 µM; and `O=C(NC1=C(Cl)C(=O)c2ccccc2C1=O)c1ccc(F)cc1`, with 4.85 µM.

The next assay deals with HCT-116 colon. Nature of the assay: inhibition of tumour cell growth, NCI panel, 48 h.
On to `COC(=O)[C@@H]1[C@H](OC(C)=O)CCC2[C@@]3(C[C@@H](c4ccoc4)O[C@@H]3OC)[C@H](C)CC[C@]21C(=O)OC` (stereo partly specified), for which the TGI was more than 25 µM.
Still for that read-out and setting: then `Cc1n[nH]c(=O)n1N1C(=O)CCCC1=O`, with more than 100 µM; and `CC(C)(C)OC(=O)NC(Cc1ccccc1)OCc1ccccc1` (stereo unspecified), with 31.8 µM; and `CN1c2ccccc2C(=O)NC12CCN(CCCC(=O)c1ccc(F)cc1)CC2`, with more than 100 µM.
Same read-out and setting: then `NC(N)=NCC[C@H](NC(=O)OCCCCCn1ccc(=O)[nH]c1=O)C(=O)O`, with more than 100 µM; and `O=C(c1ccccc1)c1ccc2nc(-c3c(Cl)c(Cl)c(Cl)c(Cl)c3C(=O)N/N=C/c3ccc(Cl)cc3)[nH]c2c1`, with more than 100 µM.
`CCc1nn(CN2CCOCC2)c(=S)n1/N=C/c1ccc(-c2ccc(Cl)cc2)o1` returned a TGI of more than 100 µM.
Still for that read-out and setting: for `COc1cc(C2SCC(=O)N2c2cccc(Cl)c2)cc(OC)c1OC` (stereo unspecified) the value was more than 100 µM.
As for `CCOC(=O)c1c(C)nc2c1c(CN(C)C)c(O)c1[nH]c(C)c(C)nc12`, the TGI was found to be 42.8 µM.
`CC(=O)C1C(=O)C(=O)N(c2cccc([N+](=O)[O-])c2)C1=O` (stereo unspecified): the TGI was more than 100 µM.
The same measure, in the same setting: then `CCN(CC)CC1CCCCN1CC(=O)N1c2ccccc2C(=O)Nc2cccnc21` (stereo unspecified), with 37.2 µM; and `C=CC[C@@H](N)C(=O)N(C)[C@@H](C)[C@@H](O)c1ccccc1`, with more than 100 µM; and `N#Cc1sc2c(c1OC(=O)c1ccccc1)c(=O)n(-c1ccccc1)c(=S)n2-c1ccccc1`, with 40.6 µM.
Still for that read-out and setting: then `O=C(NC1=C(Cl)C(=O)c2ccccc2C1=O)c1ccc(F)cc1`, with 10.6 µM.

The test system of another assay is NCI-H23 lung. The assay is described as follows: inhibition of tumour cell growth, NCI panel, 48 h.
With `COC(=O)[C@@H]1[C@H](OC(C)=O)CCC2[C@@]3(C[C@@H](c4ccoc4)O[C@@H]3OC)[C@H](C)CC[C@]21C(=O)OC` (stereo partly specified), the TGI was more than 25 µM.
Turning to `Cc1n[nH]c(=O)n1N1C(=O)CCCC1=O`, the TGI is more than 100 µM.
Same read-out and setting: then `CC(C)(C)OC(=O)NC(Cc1ccccc1)OCc1ccccc1` (stereo unspecified), with 46.3 µM.
On the same count and under the same terms, for `CN1c2ccccc2C(=O)NC12CCN(CCCC(=O)c1ccc(F)cc1)CC2` the value was more than 100 µM.
`NC(N)=NCC[C@H](NC(=O)OCCCCCn1ccc(=O)[nH]c1=O)C(=O)O`: the TGI was more than 100 µM.
The same measure, in the same setting: for `O=C(c1ccccc1)c1ccc2nc(-c3c(Cl)c(Cl)c(Cl)c(Cl)c3C(=O)N/N=C/c3ccc(Cl)cc3)[nH]c2c1` the value was more than 100 µM.
